Results as given in patent US20260317277A1, “ARYLALKYLAMINE COMPOUND, AND PREPARATION METHOD THEREFOR AND USE THEREOF” (RENHE YIKANG GROUP CO., LTD., priority 2024, published 2026).

Key:
[1] = Pharmacokinetic study in SD rats; assay type: in vivo, Male Sprague-Dawley (SD) rats; details: male SD rats, oral gavage; Evocalcet = 100
Experimental: Animal Information: Male Sprague-Dawley (SD) rats, aged 7-8 weeks, were used. Each group consisted of 3-5 rats.
Dosing Information: The rats were fasted for more than 12 hours prior to administration. A single dose was administered via oral gavage.
Blood Sampling Time Points: Blood samples were collected from the tail vein before administration and at 0.25, 0.5, 1, 2, 4, 6, 8, and 24 hours post-administration. A volume of 100 μL of blood was collected at each time point.
Sample Processing and Storage: The blood samples were transferred into 1.5 mL microcentrifuge tubes, with 50 μL per tube (two tubes per sample). Centrifugation was completed within 2 hours. Whole blood samples were kept on ice prior to centrifugation. Centrifugation was performed at 4000 rpm, 2-8° C., for 10 minutes. After collecting the supernatant, it was stored at −80° C. or below if not analyzed immediately.
Column: An InfinityLab Poroshell 120 SB-C18 column (2.1×100 mm, 2.7 μm) was used. Column Temperature: The temperature was maintained at 30° C. Flow Rate: The flow rate was set at 0.3 mL/min. Run Time: The total run time was 9.5 minutes. Post-run Time: A post-run time of 2 minutes was applied. Injection Volume: An injection volume of 2 μL was used. Mobile Phase: A mixture of methanol and 0.1% formic acid was employed as the mobile phase. Gradient Elution: Gradient elution was performed according to the table below.
b) the Mass Spectrometry Conditions were Set as Follows: […]
Preparation of Standard Solutions: Appropriate volumes of Evocalcet, Compound 2, and Compound 3 stock solutions were precisely measured and diluted with 50% methanol to prepare standard solutions with concentrations of 80, 200, 1000, 5000, 10000, 20000, and 40000 ng/mL.
Preparation of Internal Standard (Clenbuterol Hydrochloride) Solution: 10 mg of clenbuterol hydrochloride was accurately weighed and transferred into a 10 mL volumetric flask. […] An appropriate volume of the stock solution was precisely measured and diluted with methanol to prepare a 2000 ng/mL internal standard working solution. […]

[2] = Review Report on Evocalcet Tablets 1 mg and 2 mg, March 2018; cited from earlier work

SMILES | Relative bioavailability (%) [1] [%] | adverse reactions [2]
C[C@@H](N[C@H]1CCN(c2ccc(CC(=O)O)cc2F)C1)c1cccc2ccccc12 [Compound 2, 2-(3-fluoro-4-((S)-3-(((R)-1-(naphthalen-1-yl)ethyl)amino)pyrrolidin-1-yl)phenyl)acetic Acid] | 136 | –
Cc1cc(CC(=O)O)ccc1N1CC[C@H](N[C@H](C)c2cccc3ccccc23)C1 [Compound 3, 2-(3-methyl-4-((S)-3-(((R)-1-(naphthalen-1-yl)ethyl)amino)pyrrolidin-1-yl)phenyl)acetic Acid] | 144 | –
C[C@@H](N[C@H]1CCN(c2ccc(CC(=O)O)cc2)C1)c1cccc2ccccc12 [Evocalcet] | 100 | hypocalcemia, vomiting, nausea, chills, QT prolongation, mood disturbances, cardiac arrhythmia, hypotension, and cramps
